The results in this text go back to patent publication US6951953B2, “Tumor selective and biodegradable polyphosphazene-platinum(II) conjugate antitumor agent, and preparation method thereof” (EWHA Womans University, priority 2003, dated 2005).

Read-outs that look alike come from different tables or passages of the source. Some results are limits rather than exact numbers.

Assay [1] deals with gastric tumor cell line (YCC-3). Put plainly: In vivo xenograft test against a gastric tumor cell line (YCC-3). The note with it: YCC-3 xenograft in nu/nu mice; for The tumor tissue size after injection of an antitumor agent: intraperitoneal; for tumor tissue growth rate / inhibition effect on it (in words): versus control group / cisplatin, after 60 days from injection. Here is the method: The in vivo sensitivity of the present conjugate drug against a gastric tumor cell line (YCC-3) was assayed using nu/nu mice (6-8 weeks old, 20-25 g). After being treated with 0.25% Trypsin-EDTA, the cultivated tumor cells were centrifuged in PBS solution for 5 minutes. This process was repeated three or more times, and then the tumor cells were made into a single floated tumor cell. The concentration of the tumor cells in PBS solution was calculated from the number of cells measured by a hemocytometer. The tumor cells were then kept in ice and were injected into mice within 30 minutes. The single floated tumor cells (4×10^7) in 100 μl of PBS solution were subcutaneously injected into the right side of each mouse using an 1 ml syringe.
[…] In the case of the control group, only the same amount of PBS solution was injected. Weights of the mice and tumor size were measured every two days. Size of the tumor was calculated with an equation of length×width×width/2.

Assay [2] deals with leukemia L1210 cell line. The note with it: read-out: In vitro (ID50).
In assay [3] the test system is leukemia L1210 cell line.

With `N.N.[Cl][Pt][Cl]` [Cisplatin, reference compound], the “The tumor tissue size after injection of an antitumor agent” value (shortened to “The tumor tissue size after injection”) is given as 161.36 mm^3 in assay [1] (18 days, dosage 4 mg/kg); 330.62 mm^3 in assay [1] (32 days, dosage 4 mg/kg); 588.02 mm^3 in assay [1] (48 days, dosage 4 mg/kg); 815.79 mm^3 in assay [1] (60 days, dosage 4 mg/kg). The “tumor tissue growth rate / inhibition effect on it (in words)” value in assay [1] was “not significantly different from that of the control group”.
Turning to “poly{[methoxy poly(ethylene glycol)350][glycylglutamato-trans-(±)-1,2-diaminocyclohexaneplatinum(II)]phosphazene}, {NP(MPEG350)1.0[(GlyGlu)Pt(dach)]1.0}n [Example 3]”, the “The tumor tissue size after injection” value is listed as 121.92 mm^3 in assay [1] (18 days, dosage 30 mg/kg); 32.69 mm^3 in assay [1] (18 days, dosage 60 mg/kg); 210.38 mm^3 in assay [1] (32 days, dosage 30 mg/kg); 72.08 mm^3 in assay [1] (32 days, dosage 60 mg/kg); 111.23 mm^3 in assay [1] (48 days, dosage 30 mg/kg); 65.36 mm^3 in assay [1] (48 days, dosage 60 mg/kg). Further, the “The tumor tissue size after injection” value in assay [1] (60 days, dosage 30 mg/kg) came to 22.71 mm^3; in assay [1] (60 days, dosage 60 mg/kg) it was 91.10 mm^3. In addition, the “tumor tissue growth rate / inhibition effect on it (in words)” value in assay [1] was “outstanding compared with that of cisplatin”. Also, the IC50 in assay [2] was determined as 3.4 µM. Also, the “in vivo T/C (%)” value in assay [3] (dosage 30 mg/kg) is recorded as 194.1%; in assay [3] (dosage 60 mg/kg), “toxic”.
“poly{[methoxy poly(ethylene glycol)350][glycylglutamato-trans-(±)-1,2-diaminocyclohexaneplatinum(II)]phosphazene}, {NP(MPEG350)1.2[(GlyGlu)Pt(dach)]0.8}n [Example 2]”: the IC50 in assay [2] stood at 6.9 µM. Further, the “in vivo T/C (%)” value in assay [3] (dosage 30 mg/kg) is on record as 208.1%; in assay [3] (dosage 60 mg/kg) it was > 305.6%.
In the same order, the values of “poly{[methoxy poly(ethylene glycol)350][glycylglutamato-trans-(±)-1,2-diaminocyclohexaneplatinum(II)]phosphazene}, {NP(MPEG350)1.4[(GlyGlu)Pt(dach)]0.6}n [Example 5]” are 6.2 µM, 244.3% and 231.1%.
“poly{[methoxy poly(ethylene glycol)350][glycylglutamato-trans-(±)-1,2-diaminocyclohexaneplatinum(II)]phosphazene}, {NP(MPEG350)1.5[(GlyGlu)Pt(dach)]0.5}n [Example 1]”: the IC50 in assay [2] turned out to be 8.2 µM. Moreover, the “in vivo T/C (%)” value in assay [3] (dosage 30 mg/kg) was 178/30%.
For “poly{[methoxy poly(ethylene glycol)550][glycylglutamato-trans(±trans-(±)-1,2-diaminocyclohexaneplatinum(II)]phosphazene}, {NP(MPEG350)1.12[(GlyGlu)Pt(dach)]0.88}n [Example 7]”, the IC50 in assay [2] is > 40 µM. Further, the “in vivo T/C (%)” value was 228.2% in assay [3] (dosage 30 mg/kg) and 209.4% in assay [3] (dosage 60 mg/kg).
In the same order, the values of “pol{[methoxy poly(ethylene glycol)350][glycylglutamato-trans-(±)-1,2-diaminocyclohexaneplatinum(II)]phosphazene}, {NP(MPEG350)1.2[(GlyGlu)Pt(dach)]0.8}n [Example 4]” are 3.5 µM, 186.8% and 216.8%.
